The text below walks through data of patent US5696136A, “Method of treating psychosis using azaheterocyclylmethyl” (Bayer Aktiengesellschaft, priority 1991, dated 1997).

Counter-ions that a name gives are not always drawn. Like-named read-outs stand apart in the source and are kept apart here.

The test system of one experiment is α-adrenergic. To be noted: hydrochloride; literature; cited from earlier work.
Another experiment concerns the target 5-HT1 receptor. Kind of experiment: Affinity for the 5-HT1 receptor; receptor-binding studies using calf hippocampus membrane preparations, 3H-serotonin. The settings on record: calf hippocampus membranes. The source says: Affinity for the 5-HT1 receptor
The high affinity of the compounds according to the invention for 5-hydroxytryptamine receptors of subtype 1 is shown in Table 1 by way of example. The values shown are data which have been determined from receptor-binding studies using calf hippocampus membrane preparations. To this end, ^3 H-serotonin was used as radioactively labelled ligand.

A further experiment concerns the target dopamine D2 receptor (Rattus norvegicus, UniProt P61169). The experiment can be described thus: Dopamine D2 receptor test; binding of 3H-sulpiride to membranes from the striatum of rats.
The next experiment deals with T1, 5-HT1A receptor (Bos taurus, UniProt F6Q2H9).
T1 construct: 5-HT1A receptors in calf hippocampus membranes; from tissue; host or cells: calf hippocampus membranes
T1 sequence (F6Q2H9 1-422): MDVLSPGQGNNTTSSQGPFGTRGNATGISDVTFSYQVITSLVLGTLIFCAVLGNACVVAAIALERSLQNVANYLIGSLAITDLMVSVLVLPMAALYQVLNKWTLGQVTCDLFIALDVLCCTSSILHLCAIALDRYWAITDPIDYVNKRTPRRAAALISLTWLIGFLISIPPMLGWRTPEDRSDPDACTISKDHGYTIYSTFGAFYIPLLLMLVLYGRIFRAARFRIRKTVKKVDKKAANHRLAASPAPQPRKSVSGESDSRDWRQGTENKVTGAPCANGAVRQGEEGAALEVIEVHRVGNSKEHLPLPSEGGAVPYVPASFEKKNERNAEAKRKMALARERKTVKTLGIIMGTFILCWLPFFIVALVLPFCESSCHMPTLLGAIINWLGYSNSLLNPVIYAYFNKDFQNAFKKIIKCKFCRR
The experiment can be described thus: Affinity for the 5-HT1A receptor; binding of 3H-ipsapiron to 5-HT1A receptors in calf hippocampus membranes. How it is done: Affinity for the 5-HT1A receptor
[W. U. Dompert et al., Naunyn-Schmiedeberg's Arch. Pharmacol. (1985), 328, 467-470].
In this test the binding of ^3 H-ipsapiron to 5-HT1A receptors in calf hippocampus membranes is measured.

Where [1] appears, read: 3H-sulpiride, rat striatum membranes, Ki calculated from IC50, read-out: Ki.

Sequence of dopamine D2 receptor (P61169 whole entry): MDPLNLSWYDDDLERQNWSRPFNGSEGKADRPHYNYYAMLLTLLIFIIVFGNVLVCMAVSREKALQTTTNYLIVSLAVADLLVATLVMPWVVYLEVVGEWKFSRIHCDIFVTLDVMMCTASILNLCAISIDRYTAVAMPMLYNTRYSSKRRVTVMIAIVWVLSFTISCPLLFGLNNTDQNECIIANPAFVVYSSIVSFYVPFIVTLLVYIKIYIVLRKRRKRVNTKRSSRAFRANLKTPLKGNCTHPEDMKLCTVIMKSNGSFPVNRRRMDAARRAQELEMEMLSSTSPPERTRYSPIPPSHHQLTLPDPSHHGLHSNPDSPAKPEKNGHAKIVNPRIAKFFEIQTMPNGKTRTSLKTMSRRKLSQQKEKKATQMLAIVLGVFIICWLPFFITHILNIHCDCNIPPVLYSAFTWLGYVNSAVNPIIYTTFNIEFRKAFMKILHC
Description for dopamine D2 receptor: In this test the binding of the selective D2 receptor antagonist ^3 H-sulpiride to membranes from the striatum of rats is measured. Compounds which bind to dopamine D2 receptors inhibit the binding of ^3 H-sulpiride in a concentration-dependent manner. IC50 values are determined from the displacement curves and the inhibition constants Ki calculated from these values.

Consider `c1ccc2c(c1)CCC(CN1CCCCC1)O2` (centres unmarked) [1-[(3,4-dihydro-2H-1-benzopyran-2-yl)methyl]piperidine], for which the α-adrenergic-blocking effect entry with α-adrenergic was “α-adrenergic-blocking effect”.
Regarding `COc1cccc2c1OC(CN1CCC(CN3C(=O)c4ccccc4C3=O)CC1)CC2` (centres unmarked) [Example 2, 2-[4-(Isoindol-1,3-dion-2-yl)methyl-piperidin-1-yl)methyl-8-methoxychroman oxalate hydrate], the values for the Ki at 5-HT1 receptor and on dopamine D2 receptor (setting [1]) were 3 nM and 1.8 nM, respectively.
For the molecule `O=c1[nH]c2ccccc2n1C1CCN(CC2CCc3ccccc3O2)CC1` (centres unmarked) [Example 3, 1-(Chroman-2-yl-methyl)-4-(2-oxo-1-benzimidazolyl)-piperidine], the inhibition constant Ki (usually the equilibrium dissociation constant of an inhibitor or competing ligand from its target) on dopamine D2 receptor was 0.4 nM.
With `COc1cccc2c1OC(CN1CCC(n3c(=O)[nH]c4ccccc43)CC1)CC2` (centres unmarked) [Example 4], the inhibition constant (Ki) at 5-HT1 receptor was found to be 2 nM.
Regarding `O=c1[nH]c2ccccc2n1C1=CCN(CC2CCc3ccccc3O2)CC1` (centres unmarked) [Example 5], affinity at 5-HT1A receptor was put at a Ki of 1.5 nM.
Turning to `COc1cccc2c1OC(CN1CC=C(n3c(=O)[nH]c4ccccc43)CC1)CC2` (centres unmarked) [Example 6], the Ki at 5-HT1A receptor is 1.4 nM; on dopamine D2 receptor (setting [1]) it was 2.3 nM.
